Reference: patent US7531646B2, “β-D-ribosidase activity indicators with a chromogenic substrate” (priority 2001, dated 2009)
Where a name gives a salt, the structure may show the parent alone.

Key:
Format in all cases: cell-based
E. coli = assay: Substrate hydrolysis on Columbia agar; conditions: 300 mg/l, 18 hours
Hafnia alvei = assay: Substrate hydrolysis on Columbia agar; conditions: 300 mg/l, 18 hours
K. pneumoniae = assay: Substrate hydrolysis on Columbia agar; parameters: key to the marks not given beside the values; conditions: 300 mg/l, 18 hours
K. oxytoca = assay: Substrate hydrolysis on Columbia agar; conditions: 300 mg/l, 18 hours
C. freundii = assay: Substrate hydrolysis on Columbia agar; conditions: 300 mg/l, 18 hours
E. cloacae = assay: Substrate hydrolysis on Columbia agar; parameters: key to the marks not given beside the values; conditions: 300 mg/l, 18 hours
Salmonella panama = assay: Substrate hydrolysis on Columbia agar; conditions: Salmonella panama SAX 58; 300 mg/l; 18 hours
A. calcoaceticus = assay: Substrate hydrolysis on Columbia agar; conditions: A. calcoaceticus ATCC 7844; 300 mg/l; 18 hours
P. rettgeri = assay: Substrate hydrolysis on Columbia agar; conditions: P. rettgeri NCTC 7475; 300 mg/l; 18 hours
[1] = system: Providencia alcalifaciens; assay: Substrate hydrolysis on Columbia agar; conditions: 300 mg/l, 18 hours
P. penneri = assay: Substrate hydrolysis on Columbia agar; conditions: P. penneri PPE 1; 300 mg/l; 18 hours
Vibrio cincinnatiensis = assay: Substrate hydrolysis on Columbia agar; conditions: Vibrio cincinnatiensis NCTC 12012; 300 mg/l; 18 hours
Streptococcus oralis = assay: Substrate hydrolysis on Columbia agar; conditions: Streptococcus oralis NCTC11427; 300 mg/l; 18 hours
Streptococcus mitis = assay: Substrate hydrolysis on Columbia agar; conditions: Streptococcus mitis NCTC 12261; 300 mg/l; 18 hours
[2] = system: Streptococcus vestibularis; assay: Substrate hydrolysis on Columbia agar; conditions: Streptococcus vestibularis NCTC 12166; 300 mg/l; 18 hours
[3] = system: Haemolytic streptococcus A; assay: Substrate hydrolysis on Columbia agar; conditions: 300 mg/l, 18 hours
Listeria ivanovii = assay: Substrate hydrolysis on Columbia agar; conditions: Listeria ivanovii PHLS wild; 300 mg/l; 18 hours
Staphylococcus aureus = assay: Substrate hydrolysis on Columbia agar; conditions: 300 mg/l, 18 hours
[4] = system: Staphylococcus haemolyticus; assay: Substrate hydrolysis on Columbia agar; conditions: 300 mg/l, 18 hours
[5] = system: Staphylococcus epidermidis; assay: Substrate hydrolysis on Columbia agar; conditions: 300 mg/l, 18 hours
Enterococcus mundtii = assay: Substrate hydrolysis on Columbia agar; conditions: Enterococcus mundtii NCTC 12363; 300 mg/l; 18 hours
Enterococcus casseflavus = assay: Substrate hydrolysis on Columbia agar; conditions: Enterococcus casseflavus NCTC 12361; 300 mg/l; 18 hours
Gram positive bacteria = assay: Substrate hydrolysis on Columbia agar, summary of screen; conditions: of 74 Gram positive bacteria tested; 300 mg/l; 18 hours

O=c1cc(-c2ccc(OC3OC(CO)C(O)C3O)c(O)c2)oc2ccccc12 [DHF-riboside, 3′,4′-dihydroxyflavone-4′-β-D-ribofuranoside Sodium Salt]
−: Hydrolysis by Gram negative bacteria (A. calcoaceticus) | Hydrolysis by Gram negative bacteria ([1]; Providencia alcalifaciens PAL 2) | Hydrolysis by Gram negative bacteria (P. penneri) | Hydrolysis by Gram negative bacteria (Vibrio cincinnatiensis) | Hydrolysis by Gram positive organisms (Streptococcus oralis) | Hydrolysis by Gram positive organisms (Streptococcus mitis) | Hydrolysis by Gram positive organisms [2] | Hydrolysis by Gram positive organisms ([3]; Haemolytic streptococcus A 1) | Hydrolysis by Gram positive organisms ([3]; Haemolytic streptococcus A 2) | Hydrolysis by Gram positive organisms ([3]; Haemolytic streptococcus A 3) | Hydrolysis by Gram positive organisms (Enterococcus casseflavus)
++: Hydrolysis by Gram negative bacteria (E. coli; E. coli ECO 2) | Hydrolysis by Gram negative bacteria (E. coli; E. coli ECO 3) | Hydrolysis by Gram negative bacteria (E. coli; E. coli ECO 4) | Hydrolysis by Gram negative bacteria (E. coli; E. coli ECO 5) | Hydrolysis by Gram negative bacteria (E. coli; E. coli ECO 6) | Hydrolysis by Gram negative bacteria (E. coli; E. coli ECO 7) | Hydrolysis by Gram negative bacteria (E. coli; E. coli ECO 8) | Hydrolysis by Gram negative bacteria (E. coli; E. coli ECO 9) | Hydrolysis by Gram negative bacteria (E. coli; E. coli ECO 10) | Hydrolysis by Gram negative bacteria (E. coli; E. coli ECO 11) | Hydrolysis by Gram negative bacteria (E. coli; E. coli ECO 12) | Hydrolysis by Gram negative bacteria (E. coli; E. coli NCTC 10418) | Hydrolysis by Gram negative bacteria (Hafnia alvei; Hafnia alvei HAL 2) | Hydrolysis by Gram negative bacteria (Hafnia alvei; Hafnia alvei NCTC 8105) | Hydrolysis by Gram negative bacteria (K. pneumoniae; K. pneumoniae KPN 2) | Hydrolysis by Gram negative bacteria (K. pneumoniae; K. pneumoniae KPN 3) | Hydrolysis by Gram negative bacteria (K. pneumoniae; K. pneumoniae KPN 4) | Hydrolysis by Gram negative bacteria (K. pneumoniae; K. pneumoniae NCTC 10896) | Hydrolysis by Gram negative bacteria (K. oxytoca; K. oxytoca KOX 1) | Hydrolysis by Gram negative bacteria (K. oxytoca; K. oxytoca KOX 2) | Hydrolysis by Gram negative bacteria (C. freundii; C. freundii CFR 1) | Hydrolysis by Gram negative bacteria (C. freundii; C. freundii CFR 2) | Hydrolysis by Gram negative bacteria (C. freundii; C. freundii CFR 3) | Hydrolysis by Gram negative bacteria (C. freundii; C. freundii CFR 4) | Hydrolysis by Gram negative bacteria (C. freundii; C. freundii NCTC 9750) | Hydrolysis by Gram negative bacteria (E. cloacae; E. cloacae ECL 1) | Hydrolysis by Gram negative bacteria (E. cloacae; E. cloacae ECL 2) | Hydrolysis by Gram negative bacteria (E. cloacae; E. cloacae ECL 3) | Hydrolysis by Gram negative bacteria (E. cloacae; E. cloacae ECL 4) | Hydrolysis by Gram negative bacteria (E. cloacae; E. cloacae NCTC 11936) | Hydrolysis by Gram negative bacteria (Salmonella panama) | Hydrolysis by Gram positive organisms (Staphylococcus aureus; Staphylococcus aureus 1) | Hydrolysis by Gram positive organisms (Staphylococcus aureus; Staphylococcus aureus 2) | Hydrolysis by Gram positive organisms (Staphylococcus aureus; Staphylococcus aureus 3) | Hydrolysis by Gram positive organisms (Staphylococcus aureus; Staphylococcus aureus 4) | Hydrolysis by Gram positive organisms (Staphylococcus aureus; Staphylococcus aureus 5) | Hydrolysis by Gram positive organisms ([5]; Staphylococcus epidermidis RB60)
+: Hydrolysis by Gram negative bacteria (P. rettgeri) | Hydrolysis by Gram negative bacteria ([1]; Providencia alcalifaciens PAL 1) | Hydrolysis by Gram positive organisms (Listeria ivanovii) | Hydrolysis by Gram positive organisms ([4]; Staphylococcus haemolyticus RB 66) | Hydrolysis by Gram positive organisms ([4]; Staphylococcus haemolyticus RB 67) | Hydrolysis by Gram positive organisms ([4]; Staphylococcus haemolyticus RB 68) | Hydrolysis by Gram positive organisms ([4]; Staphylococcus haemolyticus RB 69) | Hydrolysis by Gram positive organisms ([4]; Staphylococcus haemolyticus RB 70) | Hydrolysis by Gram positive organisms ([5]; Staphylococcus epidermidis RB62) | Hydrolysis by Gram positive organisms ([5]; Staphylococcus epidermidis RB63) | Hydrolysis by Gram positive organisms ([5]; Staphylococcus epidermidis RB64) | Hydrolysis by Gram positive organisms ([5]; Staphylococcus epidermidis RB65) | Hydrolysis by Gram positive organisms (Enterococcus mundtii)
30.8%: Gram positive bacteria tested that hydrolysed the substrate (Gram positive bacteria)
